What all share (format): cell-based
The target of assay [1] is T1, GLP-1 receptor (Homo sapiens, UniProt P43220).
T1 construct: expressed in transfected cells; host or cells: HEK293
Briefly: cAMP synthesis functional assay (firefly luciferase reporter in HEK293 cells), GLP-1 receptor. Conditions: Table 1; for EC50: GLP-1 Receptor EC50, nM; for GLP-1 Receptor relative activity: relative to the native hormone of the indicated receptor.

The target of assay [2] is T2, GIP receptor (Homo sapiens, UniProt P48546).
T2 construct: expressed in transfected cells; host or cells: HEK293
T2 sequence (P48546 22-466): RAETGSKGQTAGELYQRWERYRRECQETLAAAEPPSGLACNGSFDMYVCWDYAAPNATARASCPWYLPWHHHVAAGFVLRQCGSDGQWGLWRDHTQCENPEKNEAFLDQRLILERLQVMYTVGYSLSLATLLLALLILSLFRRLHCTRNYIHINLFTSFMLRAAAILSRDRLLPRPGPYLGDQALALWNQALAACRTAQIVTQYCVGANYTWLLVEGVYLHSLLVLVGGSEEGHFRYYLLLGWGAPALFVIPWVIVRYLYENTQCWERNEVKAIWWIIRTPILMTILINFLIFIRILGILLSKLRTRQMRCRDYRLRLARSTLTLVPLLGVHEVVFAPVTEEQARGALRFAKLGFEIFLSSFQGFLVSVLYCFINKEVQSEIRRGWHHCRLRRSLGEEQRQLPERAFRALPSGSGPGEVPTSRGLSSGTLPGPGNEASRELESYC
Briefly: cAMP synthesis functional assay (firefly luciferase reporter in HEK293 cells), GIP receptor. As to conditions: Table 1; relative to the native hormone of the indicated receptor. A general note: A reporter such as luciferase makes a cellular process visible.

In assay [3] the target is T3, glucagon receptor (Homo sapiens, UniProt P47871).
T3 construct: expressed in transfected cells; host or cells: HEK293
T3 sequence (P47871 26-477): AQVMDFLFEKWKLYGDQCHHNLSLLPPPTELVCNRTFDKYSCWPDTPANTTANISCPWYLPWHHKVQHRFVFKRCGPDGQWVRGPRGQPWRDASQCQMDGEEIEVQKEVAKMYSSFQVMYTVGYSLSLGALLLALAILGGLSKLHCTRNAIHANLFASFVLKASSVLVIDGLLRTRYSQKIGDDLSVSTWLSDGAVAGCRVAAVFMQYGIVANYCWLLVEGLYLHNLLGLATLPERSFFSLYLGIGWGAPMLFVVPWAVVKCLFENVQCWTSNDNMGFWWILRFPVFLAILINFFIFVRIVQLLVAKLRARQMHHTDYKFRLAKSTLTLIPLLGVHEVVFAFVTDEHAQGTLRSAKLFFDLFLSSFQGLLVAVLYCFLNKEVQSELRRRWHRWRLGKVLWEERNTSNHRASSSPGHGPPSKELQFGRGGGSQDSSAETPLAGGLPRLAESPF
Briefly: cAMP synthesis functional assay (firefly luciferase reporter in HEK293 cells), glucagon receptor. As to conditions: Table 1; relative to the native hormone of the indicated receptor.

Data on six compounds can be found in patent US9062124B2, “GIP-based mixed agonists for treatment of metabolic disorders and obesity” (priority 2008, dated 2015).

Where a SMILES comes first, the peptide text is derived from it. Bridges are numbered along the chain shown (N, C = ends).

The EC50 is the concentration at which the effect is half-maximal. A lower EC50 goes with higher potency in that assay.

T1 sequence (P43220 24-463, species assumed): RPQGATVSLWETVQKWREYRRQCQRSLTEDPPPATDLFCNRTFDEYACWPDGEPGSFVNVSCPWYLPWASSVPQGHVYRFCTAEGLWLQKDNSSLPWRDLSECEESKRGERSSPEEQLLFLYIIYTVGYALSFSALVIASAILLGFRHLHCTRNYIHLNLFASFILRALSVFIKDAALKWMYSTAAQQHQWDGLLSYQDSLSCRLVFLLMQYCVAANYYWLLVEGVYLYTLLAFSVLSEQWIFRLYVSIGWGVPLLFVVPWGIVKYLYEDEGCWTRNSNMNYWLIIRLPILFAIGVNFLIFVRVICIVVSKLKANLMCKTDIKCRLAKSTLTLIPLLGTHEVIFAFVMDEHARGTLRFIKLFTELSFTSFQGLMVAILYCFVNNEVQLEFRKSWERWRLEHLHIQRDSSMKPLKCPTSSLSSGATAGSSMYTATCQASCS

Consider `CSCC[C@H](NC(=O)[C@H](Cc1ccc(O)cc1)NC(=O)[C@H](CCCCN)NC(=O)[C@H](CO)NC(=O)[C@H](Cc1ccc(O)cc1)NC(=O)[C@H](CC(=O)O)NC(=O)[C@H](CO)NC(=O)[C@@H](NC(=O)[C@H](Cc1ccccc1)NC(=O)[C@@H](NC(=O)CNC(=O)[C@H](CCC(N)=O)NC(=O)[C@H](CO)NC(=O)[C@@H](N)Cc1ccc(O)cc1)[C@@H](C)O)[C@@H](C)O)C(=O)N[C@@H](CC(=O)O)C(=O)N[C@H]1CCC(=O)NCCCC[C@@H](C(=O)N[C@@H](CCC(=O)O)C(=O)N[C@@H](Cc2ccccc2)C(=O)N[C@H](C(=O)N[C@@H](CC(N)=O)C(=O)N[C@@H](Cc2c[nH]c3ccccc23)C(=O)N[C@@H](CC(C)C)C(=O)N[C@@H](CC(C)C)C(=O)N[C@@H](C)C(=O)NCC(=O)NCC(=O)N2CCC[C@H]2C(=O)N[C@@H](CO)C(=O)N[C@@H](CO)C(=O)NCC(=O)N[C@@H](C)C(=O)N2CCC[C@H]2C(=O)N2CCC[C@H]2C(=O)N2CCC[C@H]2C(=O)N[C@@H](CO)C(N)=O)C(C)C)NC(=O)[C@H](C)NC(=O)[C@H](C)NC(=O)[C@H](CCC(N)=O)NC1=O` [mt-141] (H-YSQGTFTSDYSKYMDEQAAKEFVNWLLAGGPSSGAPPPS-NH2; lactam 16-20; N-terminus assumed), for which, in assay [1], the EC50 came to 0.16 nM and the “GLP-1 Receptor relative activity” value is 36.78%. Moreover, the “GIP Receptor relative activity” value in assay [2] is 10.04%. The “Glucagon Receptor relative activity” value in assay [3] came out at 269.33%.

Take `CC(C)C[C@H](NC(=O)[C@H](CC(C)C)NC(=O)[C@H](Cc1c[nH]c2ccccc12)NC(=O)[C@H](CC(N)=O)NC(=O)[C@@H](NC(=O)[C@H](Cc1ccccc1)NC(=O)[C@H](CCC(=O)O)NC(=O)[C@@H]1CCCCNC(=O)CC[C@H](NC(=O)[C@H](CC(=O)O)NC(=O)[C@H](CC(C)C)NC(=O)[C@H](Cc2ccc(O)cc2)NC(=O)[C@H](CCCCN)NC(=O)[C@H](CO)NC(=O)[C@H](Cc2ccc(O)cc2)NC(=O)[C@H](CC(=O)O)NC(=O)[C@H](CO)NC(=O)[C@@H](NC(=O)[C@H](Cc2ccccc2)NC(=O)[C@@H](NC(=O)CNC(=O)[C@H](CCC(N)=O)NC(=O)[C@H](CO)NC(=O)[C@@H](N)Cc2ccc(O)cc2)[C@@H](C)O)[C@@H](C)O)C(=O)N[C@@H](CCCNC(=N)N)C(=O)N[C@@H](CCCNC(=N)N)C(=O)N[C@@H](C)C(=O)N1)C(C)C)C(=O)N[C@@H](C)C(=O)NCC(=O)NCC(=O)N1CCC[C@H]1C(=O)N[C@@H](CO)C(=O)N[C@@H](CO)C(=O)NCC(=O)N[C@@H](C)C(=O)N1CCC[C@H]1C(=O)N1CCC[C@H]1C(=O)N1CCC[C@H]1C(=O)N[C@@H](CO)C(N)=O` [mt-143] (H-YSQGTFTSDYSKYLDERRAKEFVNWLLAGGPSSGAPPPS-NH2; lactam 16-20; N-terminus assumed): in assay [1], the “GLP-1 Receptor relative activity” value is 4.53%. Moreover, the “GIP Receptor relative activity” value in assay [2] is 1.82%. In addition, the “Glucagon Receptor relative activity” value in assay [3] is on record as 496.51%.

In the case of `CC[C@H](C)[C@H](NC(=O)[C@H](CO)NC(=O)[C@H](Cc1ccc(O)cc1)NC(=O)[C@H](CC(=O)O)NC(=O)[C@H](CO)NC(=O)[C@@H](NC(=O)[C@H](Cc1ccccc1)NC(=O)[C@@H](NC(=O)CNC(=O)[C@H](CCC(N)=O)NC(=O)[C@H](C)NC(=O)[C@@H](N)Cc1ccc(O)cc1)[C@@H](C)O)[C@@H](C)O)C(=O)N[C@@H](Cc1ccc(O)cc1)C(=O)N[C@@H](CCSC)C(=O)N[C@@H](CC(=O)O)C(=O)N[C@H]1CCC(=O)NCCCC[C@@H](C(=O)N[C@@H](CCC(=O)O)C(=O)N[C@@H](Cc2ccccc2)C(=O)N[C@H](C(=O)N[C@@H](CC(N)=O)C(=O)N[C@@H](Cc2c[nH]c3ccccc23)C(=O)N[C@@H](CC(C)C)C(=O)N[C@@H](CC(C)C)C(=O)N[C@@H](C)C(=O)NCC(=O)NCC(=O)N2CCC[C@H]2C(=O)N[C@@H](CO)C(=O)N[C@@H](CO)C(=O)NCC(=O)N[C@@H](C)C(=O)N2CCC[C@H]2C(=O)N2CCC[C@H]2C(=O)N2CCC[C@H]2C(=O)N[C@@H](CO)C(N)=O)C(C)C)NC(=O)[C@H](C)NC(=O)[C@H](C)NC(=O)[C@H](CCC(N)=O)NC1=O` [mt-144] (H-YAQGTFTSDYSIYMDEQAAKEFVNWLLAGGPSSGAPPPS-NH2; lactam 16-20; N-terminus assumed), in assay [1], the half-maximal effective concentration (EC50) worked out at 0.036 nM and the “GLP-1 Receptor relative activity” value is 141.67%. In assay [2], the “GIP Receptor relative activity” value was found to be 18.54%. Moreover, in assay [3], the “Glucagon Receptor relative activity” value was 16.77%.

On to `CC[C@H](C)[C@H](NC(=O)[C@H](Cc1ccccc1)NC(=O)[C@@H](NC(=O)CNC(=O)[C@H](CCC(N)=O)NC(=O)[C@H](C)NC(=O)[C@@H](N)Cc1ccc(O)cc1)[C@@H](C)O)C(=O)N[C@@H](CO)C(=O)N[C@@H](CC(=O)O)C(=O)N[C@@H](Cc1ccc(O)cc1)C(=O)N[C@@H](CO)C(=O)N[C@@H](CCCCN)C(=O)N[C@@H](Cc1ccc(O)cc1)C(=O)N[C@@H](CC(C)C)C(=O)N[C@@H](CC(=O)O)C(=O)N[C@H]1CCC(=O)NCCCC[C@@H](C(=O)N[C@@H](CCC(=O)O)C(=O)N[C@@H](Cc2ccccc2)C(=O)N[C@H](C(=O)N[C@@H](CC(N)=O)C(=O)N[C@@H](Cc2c[nH]c3ccccc23)C(=O)N[C@@H](CC(C)C)C(=O)N[C@@H](CC(C)C)C(=O)N[C@@H](C)C(=O)NCC(=O)NCC(=O)N2CCC[C@H]2C(=O)N[C@@H](CO)C(=O)N[C@@H](CO)C(=O)NCC(=O)N[C@@H](C)C(=O)N2CCC[C@H]2C(=O)N2CCC[C@H]2C(=O)N2CCC[C@H]2C(=O)N[C@@H](CO)C(N)=O)C(C)C)NC(=O)[C@H](C)NC(=O)[C@H](C)NC(=O)[C@H](CCC(N)=O)NC1=O` [mt-145] (H-YAQGTFISDYSKYLDEQAAKEFVNWLLAGGPSSGAPPPS-NH2; lactam 16-20; N-terminus assumed), for which the “GLP-1 Receptor relative activity” value in assay [1] came out at 0.33%. The “GIP Receptor relative activity” value in assay [2] was determined as 4.79%. Also, the “Glucagon Receptor relative activity” value in assay [3] is 47.06%.

`CC[C@H](C)[C@H](NC(=O)[C@H](Cc1ccccc1)NC(=O)[C@@H](NC(=O)CNC(=O)[C@H](CCC(N)=O)NC(=O)[C@H](C)NC(=O)[C@@H](N)Cc1ccc(O)cc1)[C@@H](C)O)C(=O)N[C@@H](CO)C(=O)N[C@@H](CC(=O)O)C(=O)N[C@@H](Cc1ccc(O)cc1)C(=O)N[C@@H](CO)C(=O)N[C@@H](CCCCN)C(=O)N[C@@H](Cc1ccc(O)cc1)C(=O)N[C@@H](CC(C)C)C(=O)N[C@@H](CC(=O)O)C(=O)N[C@H]1CCC(=O)NCCCC[C@@H](C(=O)N[C@@H](CCC(=O)O)C(=O)N[C@@H](Cc2ccccc2)C(=O)N[C@H](C(=O)N[C@@H](CC(N)=O)C(=O)N[C@@H](Cc2c[nH]c3ccccc23)C(=O)N[C@@H](CC(C)C)C(=O)N[C@@H](CC(C)C)C(=O)N[C@@H](C)C(=O)NCC(=O)NCC(=O)N2CCC[C@H]2C(=O)N[C@@H](CO)C(=O)N[C@@H](CO)C(=O)NCC(=O)N[C@@H](C)C(=O)N2CCC[C@H]2C(=O)N2CCC[C@H]2C(=O)N2CCC[C@H]2C(=O)N[C@@H](CO)C(N)=O)C(C)C)NC(=O)[C@H](C)NC(=O)[C@H](C)NC(=O)[C@H](CCC(N)=O)NC1=O` [mt-146] (H-YAQGTFISDYSKYLDEQAAKEFVNWLLAGGPSSGAPPPS-NH2; lactam 16-20; N-terminus assumed): in assay [1], the “GLP-1 Receptor relative activity” value amounted to 0.25%. For the same compound, the “GIP Receptor relative activity” value in assay [2] is recorded as 13.30%. Moreover, the “Glucagon Receptor relative activity” value in assay [3] worked out at 480.00%.

`CC[C@H](C)[C@H](NC(=O)[C@H](CO)NC(=O)[C@H](Cc1ccc(O)cc1)NC(=O)[C@H](CC(=O)O)NC(=O)[C@H](CO)NC(=O)[C@@H](NC(=O)[C@H](Cc1ccccc1)NC(=O)[C@@H](NC(=O)CNC(=O)[C@H](CCC(N)=O)NC(=O)[C@H](CO)NC(=O)[C@@H](N)Cc1ccc(O)cc1)[C@@H](C)O)[C@@H](C)CC)C(=O)N[C@@H](Cc1ccc(O)cc1)C(=O)N[C@@H](CC(C)C)C(=O)N[C@@H](CC(=O)O)C(=O)N[C@H]1CCC(=O)NCCCC[C@@H](C(=O)N[C@@H](CCC(=O)O)C(=O)N[C@@H](Cc2ccccc2)C(=O)N[C@H](C(=O)N[C@@H](CC(N)=O)C(=O)N[C@@H](Cc2c[nH]c3ccccc23)C(=O)N[C@@H](CC(C)C)C(=O)N[C@@H](CC(C)C)C(=O)N[C@@H](C)C(=O)NCC(=O)NCC(=O)N2CCC[C@H]2C(=O)N[C@@H](CO)C(=O)N[C@@H](CO)C(=O)NCC(=O)N[C@@H](C)C(=O)N2CCC[C@H]2C(=O)N2CCC[C@H]2C(=O)N2CCC[C@H]2C(=O)N[C@@H](CO)C(N)=O)C(C)C)NC(=O)[C@H](C)NC(=O)[C@H](C)NC(=O)[C@H](CCC(N)=O)NC1=O` [mt-150] (H-YSQGTFISDYSIYLDEQAAKEFVNWLLAGGPSSGAPPPS-NH2; lactam 16-20; N-terminus assumed): the “GLP-1 Receptor relative activity” value in assay [1] stood at 1.09%. Besides, the “GIP Receptor relative activity” value in assay [2] is recorded as 26.72%. Further, the “Glucagon Receptor relative activity” value in assay [3] worked out at 316.67%.
